Reference: EP0645451A1, “Heparin binding site structural analogues of fibroblast growth factors” (AMERICAN CYANAMID COMPANY, priority 1993, dated 1995)

Legend:
Experiment in all cases: Fluorescence quenching titration, thermodynamic dissociation constant (KD)
FGF-1 (acidic FGF) = FGF-1 (acidic FGF) (Homo sapiens, UniProt P05230); details: tryptophan fluorescence quenching, 10 mM Tris-HCl, pH 7.4, 2 mM dithiothreitol, fitted with n binding sites per ligand, read-out: KD BCDS
Protocol: (§1) FGF-2 contains a single tryptophan residue at position 123. […] Therefore, the fluorescence properties of FGF-2 and FGF-2 mutants in the presence and absence of heparin and a heparin mimic, β-cyclodextran tetradecasulfate (BCDS) are evaluated in this example.
(§2) Fluorescence titration measurements are conducted in a Perkin-Elmer LS-5 fluorospectrometer using excitation and emission wavelengths of 290 nm and 350 nm, respectively. Two milliliters of FGF solution in 10 mM Tris-HCl, pH 7.4, containing 2 mM of dithiothreitol are placed in a cuvette. […] Concentrations of FGF-2 and gln^128,138FGF-2 are 370 nM and 280 nM, respectively. […] An equivalent tryptophan residue, Trp122, exists in acidic FGF (FGF-1), for which similar fluorescence quenching is obtained.
The thermodynamic dissociation constant (KD) is obtained from plots of fluorescence intensity versus ligand concentration. The fluorescence intensity data are fitted by non-linear regression by using equation 1 below, where FO is observed fluorescence intensity, FI is initial intensity, Δ F is the difference between final and the initial fluorescence intensities, Ct is the total FGF protein concentration, KD is the thermodynamic dissociation constant, and Lt is the total heparin concentration. […] However, in the fluorescence titration experiments the titration curves shown in Figure 1 cannot be fitted directly using equation 1. […]

[1] = target: T1, human FGF-2, wild-type (recombinant glu^3,5FGF-2) (Homo sapiens, UniProt P09038, A136E/S138E); assay type: binding; details: wild-type FGF-2; tryptophan fluorescence quenching, 10 mM Tris-HCl, pH 7.4, 2 mM dithiothreitol; read-out: KD BCDS
T1 construct: a synthetic gene encoding the 155 amino acid form of human FGF-2; made in house; host or cells: E. coli BL21 plys S (stated for the mutants; inferred for the wild type)
T1 sequence (P09038 134-288 A136E/S138E): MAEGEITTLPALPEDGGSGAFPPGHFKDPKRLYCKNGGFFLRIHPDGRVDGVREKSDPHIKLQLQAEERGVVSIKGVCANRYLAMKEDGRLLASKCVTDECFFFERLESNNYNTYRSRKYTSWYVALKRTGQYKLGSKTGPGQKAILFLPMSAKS
Protocol: as §1, §2
(§3) The thermodynamic dissociation constant (KD) is obtained from plots of fluorescence intensity versus ligand concentration. The fluorescence intensity data are fitted by non-linear regression by using equation 1 below, where FO is observed fluorescence intensity, FI is initial intensity, Δ F is the difference between final and the initial fluorescence intensities, Ct is the total FGF protein concentration, KD is the thermodynamic dissociation constant, and Lt is the total heparin concentration. It is assumed in equation 1 that the stoichiometry of FGF and heparin in the complex is 1:1. A graphic software Kaleidagraph is used for handling data. [formula] However, in the fluorescence titration experiments the titration curves shown in Figure 1 cannot be fitted directly using equation 1. […] Since the heparin preparation used here is composed of an average of 20 sulfated monosaccharide units per chain, it is likely that more than one FGF molecule is bound per oligosaccharide chain. […] Moreover, it is reasonable to assume that, in the absence of any data to indicate otherwise, the binding sites on heparin are independent and the binding affinities are similar. […] Under this assumption, the effective concentration of the ligand needs to be adjusted by the multiplication of the actual concentrations by the number of possible binding sites. If n is the average number of FGF molecules bound per oligosaccharide, then equation 1 can be modified to give [formula] in which the effective concentration of the ligand is increased by n times.
(§4) Equation 2 is used to fit the data shown in Figure 1 and the values of the two variables, KD and n, are determined by non-linear regression of at least three titration curves for each molecule. An average of four (n = 4) FGF-2 molecules interacting with heparin is obtained. Four binding sites on each heparin molecule are assumed for mutant gln^128,138FGF-2. Since the molecular weight of heparin used in the experiments is about 5000, which has an average of 20 monosaccharide units, about 4 to 6 monosaccharide units may interact with each FGF molecule. Two to four FGF molecules can bind to one BCDS (which has a calculated molecular weight of 2226). This estimate is in good agreement with that reported by Mach, et al. (Biochemistry 32: 5480-5489 (1993)) of a stoichiometry of 1:4-6 determined by a variety of different approaches including light scattering and analytical ultracentrifugation analyses.
(§5) Table I presents the thermodynamic dissociation constants obtained from fluorescence quenching experiments for the wild-type FGF and the mutants using heparin or BCDS.

[2] = target: T2, human FGF-2 mutant gln¹²⁸FGF-2 (lysine-128 replaced by glutamine) (Homo sapiens, UniProt P09038, A136E/K261Q/S138E); assay type: binding; details: tryptophan fluorescence quenching, 10 mM Tris-HCl, pH 7.4, 2 mM dithiothreitol, read-out: KD BCDS
T2 construct: a synthetic gene encoding the 155 amino acid form of human FGF-2; made in house; host or cells: E. coli BL21 plys S
T2 sequence (P09038 134-288 A136E/S138E/K261Q): as the sequence (P09038 134-288 A136E/S138E) above, with K128Q counted along it
Protocol: as §1, §2, §3, §4, §5

[3] = target: T3, human FGF-2 mutant gln^129,134FGF-2 (arginine-129 and lysine-134 replaced by glutamine) (Homo sapiens, UniProt P09038, A136E/K267Q/R262Q/S138E); assay type: binding; details: tryptophan fluorescence quenching, 10 mM Tris-HCl, pH 7.4, 2 mM dithiothreitol, read-out: KD BCDS
T3 construct: a synthetic gene encoding the 155 amino acid form of human FGF-2; made in house; host or cells: E. coli BL21 plys S
T3 sequence (P09038 134-288 A136E/S138E/R262Q/K267Q): as the sequence (P09038 134-288 A136E/S138E) above, with R129Q, K134Q counted along it
Protocol: as §1, §2, §3, §4, §5

[4] = target: T4, human FGF-2 mutant gln¹³⁸FGF-2 (lysine-138 replaced by glutamine) (Homo sapiens, UniProt P09038, A136E/K271Q/S138E); assay type: binding; details: tryptophan fluorescence quenching, 10 mM Tris-HCl, pH 7.4, 2 mM dithiothreitol, read-out: KD BCDS
T4 construct: a synthetic gene encoding the 155 amino acid form of human FGF-2; made in house; host or cells: E. coli BL21 plys S
T4 sequence (P09038 134-288 A136E/S138E/K271Q): as the sequence (P09038 134-288 A136E/S138E) above, with K138Q counted along it
Protocol: as §1, §2, §3, §4, §5

[5] = target: T5, human FGF-2 mutant gln^128,138FGF-2 (lysine-128 and lysine-138 replaced by glutamine) (Homo sapiens, UniProt P09038, A136E/K261Q/K271Q/S138E); assay type: binding; details: tryptophan fluorescence quenching, 10 mM Tris-HCl, pH 7.4, 2 mM dithiothreitol, read-out: KD BCDS
T5 construct: a synthetic gene encoding the 155 amino acid form of human FGF-2; made in house; host or cells: E. coli BL21 plys S
T5 sequence (P09038 134-288 A136E/S138E/K261Q/K271Q): as the sequence (P09038 134-288 A136E/S138E) above, with K128Q, K138Q counted along it
Protocol: as §1, §2, §3, §4, §5

[6] = target: T6, human FGF-2 mutant gln¹³⁴FGF-2 (lysine-134 replaced by glutamine) (Homo sapiens, UniProt P09038, A136E/K267Q/S138E); assay type: binding; details: tryptophan fluorescence quenching, 10 mM Tris-HCl, pH 7.4, 2 mM dithiothreitol, read-out: KD BCDS
T6 construct: a synthetic gene encoding the 155 amino acid form of human FGF-2; made in house; host or cells: E. coli BL21 plys S
T6 sequence (P09038 134-288 A136E/S138E/K267Q): as the sequence (P09038 134-288 A136E/S138E) above, with K134Q counted along it
Protocol: as §1, §2, §3, §4, §5

[7] = target: T7, human FGF-2 mutant gln¹²⁹FGF-2 (arginine-129 replaced by glutamine) (Homo sapiens, UniProt P09038, A136E/R262Q/S138E); assay type: binding; details: tryptophan fluorescence quenching, 10 mM Tris-HCl, pH 7.4, 2 mM dithiothreitol, read-out: KD BCDS
T7 construct: a synthetic gene encoding the 155 amino acid form of human FGF-2; made in house; host or cells: E. coli BL21 plys S
T7 sequence (P09038 134-288 A136E/S138E/R262Q): as the sequence (P09038 134-288 A136E/S138E) above, with R129Q counted along it
Protocol: as §1, §2, §3, §4, §5

FGF-1 (acidic FGF), sequence (P05230 whole entry, species assumed): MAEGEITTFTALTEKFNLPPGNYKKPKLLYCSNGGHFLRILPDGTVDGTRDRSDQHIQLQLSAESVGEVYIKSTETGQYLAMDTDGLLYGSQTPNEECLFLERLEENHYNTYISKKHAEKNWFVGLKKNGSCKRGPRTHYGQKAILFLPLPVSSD

β-cyclodextran tetradecasulfate [BCDS] gave a Kd (FGF-1 (acidic FGF)) of 4 ± 2 nM, a Kd [1] of 14 ± 7 nM and a Kd [2] of 178 ± 44 nM. It also gave a Kd [3] of 130 ± 27 nM, a Kd [4] of 228 ± 23 nM and a Kd [5] of 2700 ± 600 nM. It also gave a Kd [6] of 12 ± 0.1 nM and a Kd [7] of 3 ± 1 nM.
